According to ChEMBL document CHEMBL3044804, “Morphogenetic and Toxic Activity of Seven Novel 2, 2-Dimethylchromene Derivatives on Larvae of Oncopeltus fasciatus and Pieris brassicae” (1991):

Assays:
Assay type in all cases: functional
Oncopeltus fasciatus [1] = assay: Morphogenetic activity against fifth-instar nymphs of Oncopeltus fasciatus assessed as occurrence of precocious metamorphosis at 3 ug/cm'2
Oncopeltus fasciatus [2] = assay: Morphogenetic activity against fourth-instar nymphs of Oncopeltus fasciatus assessed as occurrence of precocious metamorphosis at 3 ug/cm'2
Oncopeltus fasciatus [3] = assay: Morphogenetic activity against third-instar nymphs of Oncopeltus fasciatus assessed as occurrence of precocious metamorphosis at 3 ug/cm'2
Pieris brassicae = assay: Insecticidal activity against fourth-instar larvae of Pieris brassicae assessed as mortality per insect after 5 days
Oncopeltus fasciatus [4] = assay: Morphogenetic activity against second-instar nymphs of Oncopeltus fasciatus assessed as mortality at 3 ug/cm'2

Compound | Activity (Oncopeltus fasciatus [1]) [%] | Activity (Oncopeltus fasciatus [2]) [%] | Activity (Oncopeltus fasciatus [3]) [%] | LD50 (Pieris brassicae) [µg] | Activity (Oncopeltus fasciatus [4]) [%]
C#CCOc1cc2c(c(C)c1OC)C=CC(C)(C)O2 | 20 | 0 | 0 | 29.9 | 30
COc1cc2c(cc1OC)OC(C)(C)C=C2 [PROCOCENE II] | 5 | 27.5 | 22.5 | 39.5 | 45
CCOc1c(OC)cc2c(c1C)C=CC(C)(C)O2 |  | 37.5 | 0 | 71 | 52.5
COc1cc2c(c(C)c1OC)C=CC(C)(C)O2 | 0 | 45 | 25 | 96.5 | 30
COc1c(OC2CCCC2)cc2c(c1C)C=CC(C)(C)O2 |  |  | 0 | 22.4 | 52.5
CCOc1cc2c(cc1OC)C=CC(C)(C)O2 | 15 | 5 | 60 | 24.5 | 20
CCOc1cc2c(c(C)c1OC)C=CC(C)(C)O2 | 0 | 95 | 0 | 88.3 | 5
CCCOc1cc2c(c(C)c1OC)C=CC(C)(C)O2 | 0 | 80 | 0 | 32.7 | 15
CCC(C)Oc1cc2c(c(C)c1OC)C=CC(C)(C)O2 (configuration not stated) | 37.5 | 0 | 0 | 20 | 47.5
